# Experimental data published in US11390604B2 (Hoffmann-La Roche Inc., priority 2019, dated 2022).
# Structures can show the parent of a compound that is named as a salt.
# System: Acinetobacter baumannii ATCC 17961
# Experiment: Antimicrobial susceptibility testing: 90% growth inhibitory concentration (IC90) determination
# Type: cell-based
# Conditions: ATCC17961, Acinetobacter baumannii ATCC 17961, Iso-Sensitest broth, read-out: ATCC 17961 IC90
# Procedure: Antimicrobial Susceptibility Testing:
# 90% Growth Inhibitory Concentration (IC90) Determination
# The in vitro antimicrobial activity of the compounds was determined according to the following procedure:
# The assay used a 10-points Iso-Sensitest broth medium to measure quantitatively the in vitro activity of the compounds against Acinetobacter baumannii ATCC 17961.
# Stock compounds in DMSO were serially twofold diluted (e.g. range from 50 to 0.097 μM final concentration) in 384 wells microtiter plates and inoculated with 49 μl the bacterial suspension in Iso-Sensitest medium to have a final cell concentration of ˜5×10^(5) CFU/ml in a final volume/well of 50 ul/well. Microtiter plates were incubated at 35±2° C.
# Bacterial cell growth was determined with the measurement of optical density at X=600 nm each 20 minutes over a time course of 16 h. Growth inhibition was calculated during the logarithmic growth of the bacterial cells with determination of the concentration inhibiting 50% (IC50) and 90% (IC90) of the growth.
# Table 1 provides the 90% growth inhibitory concentrations (IC90) in micromoles per liter of the compounds of present disclosure obtained against the strain Acinetobacter baumannii ATCC 17961.
row,IC90,SMILES
1,150 nM,"Cn1c(-c2cn(C3CC3(F)F)nc2C(F)(F)F)cnc1C(=O)Nc1ccc(C(=O)N[C@H]2[C@@H]3CN(C(=O)N[C@@H]4CCC[C@@H]4N)C[C@@H]32)c(Cl)c1 (mixture of isomers) [Example 186, cis-N-[(1R,2S)-2-aminocyclopentyl]-6-[[2-chloro-4-[[5-[1-(2,2-difluorocyclopropyl)-3-(trifluoromethyl)pyrazol-4-yl]-1-methylimidazole-2-carbonyl]amino]benzoyl]amino]-3-azabicyclo[3.1.0]hexane-3-carboxamide, formate salt]"
2,180 nM,"Cn1c(-c2cn(C3CC3(F)F)nc2C(F)(F)F)cnc1C(=O)Nc1ccc(C(=O)NC2[C@H]3CN(C(=O)N4CC[C@@H](N)C4)C[C@@H]23)c(Cl)c1 (mixture of isomers) [Example 192, N-[4-[[cis-3-[(3R)-3-aminopyrrolidine-1-carbonyl]-3-azabicyclo[3.1.0]hexan-6-yl]carbamoyl]-3-chlorophenyl]-5-[1-(2,2-difluorocyclopropyl)-3-(trifluoromethyl)pyrazol-4-yl]-1-methylimidazole-2-carboxamide, formate salt]"
3,123 nM,"Cn1c(-c2cn(C3CC3(F)F)nc2C(F)(F)F)cnc1C(=O)Nc1ccc(C(=O)N[C@H]2[C@@H]3CN(C(=O)N[C@H]4CNC[C@@H]4O)C[C@@H]32)c(Cl)c1 (mixture of isomers) [Example 381, exo-6-(2-chloro-4-(5-(1-(2,2-difluorocyclopropyl)-3-(trifluoromethyl)-1H-pyrazol-4-yl)-1-methyl-1H-imidazole-2-carboxamido)benzamido)-N-((3S,4S)-4-hydroxypyrrolidin-3-yl)-3-azabicyclo[3.1.0]hexane-3-carboxamide formate]"
4,127 nM,"Cn1c(-c2cn(C3CC3(F)F)nc2C(F)(F)F)cnc1C(=O)Nc1ccc(C(=O)N[C@H]2[C@@H]3CN(C(=O)N[C@@H]4CNC[C@H]4O)C[C@@H]32)c(Cl)c1 (mixture of isomers) [Example 382, exo-6-[[2-chloro-4-[[5-[1-(2,2-difluorocyclopropyl)-3-(trifluoromethyl)pyrazol-4-yl]-1-methylimidazole-2-carbonyl]amino]benzoyl]amino]-N-[trans-4-hydroxypyrrolidin-azabicyclo[3.1.0]hexane-3-carboxamide, formate salt]"
5,845 nM,"CCc1cc(NC(=O)c2ncc(-c3cn(CC#N)nc3C(F)(F)F)n2C)ccc1C(=O)N1CCN(C(=O)N2CC[C@H](C)[C@H](N)C2)CC1 (racemic) [Example 137, 5-[1-(cyanomethyl)-3-(trifluoromethyl)pyrazol-4-yl]-N-[3-ethyl-4-[4-[rac-(3R,4R)-3-amino-4-methylpiperidine-1-carbonyl]piperazine-1-carbonyl]phenyl]-1-methylimidazole-2-carboxamide;formic acid]"
6,167 nM,Cn1c(-c2cn(C3CC3(F)F)nc2C(F)(F)F)cnc1C(=O)Nc1ccc(C(=O)NC2[C@H]3CN(C(=O)N[C@H]4CCNC4)C[C@@H]23)c(Cl)c1 (mixture of isomers) [Example 189]
7,271 nM,"Cn1c(-c2cn(C3CC3(F)F)nc2C(F)(F)F)cnc1C(=O)Nc1ccc(C(=O)NC2CCN(C(=O)N[C@H]3C[C@@H](N)C3)CC2)c(Cl)c1 (mixture of isomers) [Example 237, rac-N-((1s,3s)-3-aminocyclobutyl)-4-(2-chloro-4-(5-(1-(2,2-difluorocyclopropyl)-3-(trifluoromethyl)-1H-pyrazol-4-yl)-1-methyl-1H-imidazole-2-carboxamido)benzamido)piperi-dine-1-carboxamide formate]"
8,335 nM,"Cn1c(-c2cn(C3CC3(F)F)nc2C(F)(F)F)cnc1C(=O)Nc1ccc(C(=O)N2C[C@H]3CNC[C@H]3C2)c(Cl)c1 (mixture of isomers) [Example 271, rac-N-(3-chloro-4-((3aR,6aS)-octahydropyrrolo[3,4-c]pyrrole-2-carbonyl)phenyl)-5-(1-(2,2-difluorocyclopropyl)-3-(trifluoromethyl)-1H-pyrazol-4-yl)-1-methyl-1H-imidazole-2-carboxamide formate]"
9,344 nM,"Cn1c(-c2cn(CC(F)F)nc2C(F)(F)F)cnc1C(=O)Nc1ccc(S(=O)(=O)N2CCN(C(=O)N[C@@H]3CNC[C@H]3O)CC2)cc1 (racemic) [Example 279, rac-4-((4-(5-(1-(2,2-difluoroethyl)-3-(trifluoromethyl)-1H-pyrazol-4-yl)-1-methyl-1H-imidazole-2-carboxamido)phenyl)sulfonyl)-N-((3R,4R)-4-hydroxypyrrolidin-3-yl)piperazine-1-carboxamide formate]"
10,345 nM,"CO[C@H]1CNC[C@@H]1NC(=O)c1ccc(NC(=O)c2ncc(-c3cn(C4CC4(F)F)nc3C(F)(F)F)n2C)cc1Cl (mixture of isomers) [Example 280, N-(3-chloro-4-((trans-4-methoxypyrrolidin-3-yl)carbamoyl)phenyl)-5-(1-(2,2-difluorocyclopropyl)-3-(trifluoromethyl)-1H-pyrazol-4-yl)-1-methyl-1H-imidazole-2-carboxamide formate]"
11,354 nM,"Cn1c(-c2cn(C3CC3(F)F)nc2C(F)(F)F)cnc1C(=O)Nc1ccc(C(=O)N2C[C@H]3CN(C(=O)N[C@H]4CNC[C@@H]4O)C[C@H]3C2)c(Cl)c1 (mixture of isomers) [Example 288, rac-(3aR,6aS)-5-(2-chloro-4-(5-(1-(2,2-difluorocyclopropyl)-3-(trifluoromethyl)-1H-pyrazol-4-yl)-1-methyl-1H-imidazole-2-carboxamido)benzoyl)-N-((3R,4R)-4-hydroxypyrrolidin-3-yl)hexahydropyrrolo[3,4-c]pyrrole-2(1H)-carboxamide formate]"
12,363 nM,"CN(C(=O)c1ccc(NC(=O)c2ncc(-c3cn(C4CC4(F)F)nc3C(F)(F)F)n2C)cc1Cl)C1CCN(C(=O)N[C@H]2C[C@@H](N)C2)CC1 (mixture of isomers) [Example 294, rac-N-((1s,3s)-3-aminocyclobutyl)-4-(2-chloro-4-(5-(1-(2,2-difluorocyclopropyl)-3-(trifluoromethyl)-1H-pyrazol-4-yl)-1-methyl-1H-imidazole-2-carboxamido)-N-methylbenzamido)piperidine-1-carboxamide formate]"
13,367 nM,"Cn1c(-c2cn(C3CC3(F)F)nc2C(F)(F)F)cnc1C(=O)Nc1ccc(C(=O)N2CC3C(C2)C3NC(=O)N[C@H]2CNC[C@@H]2O)c(Cl)c1 (mixture of isomers) [Example 300, rac-N-(3-chloro-4-(6-(3-((3R,4R)-4-hydroxypyrrolidin-3-yl)ureido)-3-azabicyclo[3.1.0]hexane-3-carbonyl)phenyl)-5-(1-(2,2-difluorocyclopropyl)-3-(trifluoromethyl)-1H-pyrazol-4-yl)-1-methyl-1H-imidazole-2-carboxamide formate]"
14,379 nM,"Cn1c(-c2cn(C3CC3(F)F)nc2C(F)(F)F)cnc1C(=O)Nc1ccc(C(=O)NCC2CC3CN(C(=O)N[C@H]4CNC[C@@H]4O)CC3C2)c(Cl)c1 (mixture of isomers) [Example 310, rac-5-((2-chloro-4-(5-(1-(2,2-difluorocyclopropyl)-3-(trifluoromethyl)-1H-pyrazol-4-yl)-1-methyl-1H-imidazole-2-carboxamido)benzamido)methyl)-N-((3R,4R)-4-hydroxypyrrolidin-3-yl)hexahydrocyclopenta[c]pyrrole-2(1H)-carboxamide formate]"
15,420 nM,"Cn1c(-c2cn(C3CC3(F)F)nc2C(F)(F)F)cnc1C(=O)Nc1ccc(C(=O)N2C[C@H]3CNC[C@@H]3C2)c(Cl)c1 (mixture of isomers) [Example 329, rac-N-(3-chloro-4-((3aR,6aR)-octahydropyrrolo[3,4-c]pyrrole-2-carbonyl)phenyl)-5-(1-(2,2-difluorocyclopropyl)-3-(trifluoromethyl)-1H-pyrazol-4-yl)-1-methyl-1H-imidazole-2-carboxamide formate]"
16,422 nM,"CN(CCCCNC(=O)c1ccc(NC(=O)c2ncc(-c3cn(C4CC4(F)F)nc3C(F)(F)F)n2C)cc1Cl)C(=O)N[C@H]1CNC[C@@H]1O (mixture of isomers) [Example 331, rac-N-(3-chloro-4-((4-(3-((3S,4S)-4-hydroxypyrrolidin-3-yl)-1-methylureido)butyl)carbamoyl)phenyl)-5-(1-(2,2-difluorocyclopropyl)-3-(trifluoromethyl)-1H-pyrazol-4-yl)-1-methyl-1H-imidazole-2-carboxamide formate]"

row,SMILES,IC90
1,"Cn1c(-c2cn(C3CC3(F)F)nc2C(F)(F)F)cnc1C(=O)Nc1ccc(C(=O)NC2C[C@@H]3CC[C@@H](C2)N3)c(Cl)c1 (mixture of isomers) [Example 283, rac-N-(4-(((1R,3s,5S)-8-azabicyclo[3.2.1]octan-3-yl)carbamoyl)-3-chlorophenyl)-5-(1-(2,2-difluorocyclopropyl)-3-(trifluoromethyl)-1H-pyrazol-4-yl)-1-methyl-1H-imidazole-2-carboxamide formate]",348 nM

# Same assay, conditions: Acinetobacter baumannii, ATCC17961, read-out: ATCC 17961 IC90, Acinetobacter baumannii ATCC 17961, Iso-Sensitest broth
row,SMILES,IC90
1,"Cn1c(-c2cn(C3CC3(F)F)nc2C(F)(F)F)cnc1C(=O)Nc1ccc(C(=O)NCC2CCCN(C(=O)N[C@H]3CNC[C@@H]3O)C2)c(Cl)c1 (mixture of isomers) [Example 226, formate]",259 nM
2,"Cn1c(-c2cn(CC3CC3(F)F)nc2C(F)(F)F)cnc1C(=O)Nc1ccc(C(=O)N2CCN(C(=O)N[C@H]3C[C@@H](N)C3)CC2)c(Cl)c1 (mixture of isomers) [Example 254, rac-N-((1s,3s)-3-aminocyclobutyl)-4-(2-chloro-4-(5-(1-((2,2-difluorocyclopropyl)methyl)-3-(trifluoromethyl)-1H-pyrazol-4-yl)-1-methyl-1H-imidazole-2-carboxamido)benzoyl)piperazine-1-carboxamide hydrochloride]",311 nM
